Reference: ChEMBL document CHEMBL1649276, “Phenylbutyrate induces antimicrobial peptide expression” (2009)
Calls of active or inactive are those of the source. No cut-off for these calls is given here.

Legend:
[1] = tested on: VA10; assay: Induction of CAMP mRNA expression in human VA10 cells at 4 mM after 24 hrs by RT-PCR analysis; format: functional, cell-based
[2] = tested on: VA10; assay: Induction of DEFB3 mRNA expression in human VA10 cells at 4 mM after 24 hrs by RT-PCR analysis; format: functional, cell-based
[3] = tested on: VA10; assay: Induction of CAMP mRNA expression in human VA10 cells at 4 mM after 24 hrs by RT-PCR analysis in presence of protein synthesis inhibitor CHX treated 1 hr before compound challenge; format: functional, cell-based
[4] = tested on: A498; assay: Induction of CAMP mRNA expression in human A498 cells at 4 mM after 8 to 48 hrs by RT-PCR analysis; format: functional, cell-based
[5] = tested on: VA10; assay: Induction of DEFB1 mRNA expression in human VA10 cells at 4 mM after 24 hrs by RT-PCR analysis; format: functional, cell-based
[6] = tested on: U-937; assay: Induction of DEFB1 mRNA expression in human U937 cells at 4 mM after 24 to 48 hrs by RT-PCR analysis; format: functional, cell-based
[7] = tested on: VA10; assay: Induction of LL-37 protein expression in human VA10 cells at 4 mM after 24 hrs by Western blotting; format: functional, cell-based
[8] = tested on: VA10; assay: Induction of LL-37 protein expression in human VA10 cells at 20 nM after 24 hrs by Western blotting; format: functional, cell-based
[9] = tested on: VA10; assay: Induction of CAMP mRNA expression in human VA10 cells at 4 mM by RT-PCR analysis; format: functional, cell-based; conditions: TDE = time-dependent effect
[10] = tested on: VA10; assay: Induction of DEFB4 mRNA expression in human VA10 cells at 4 mM after 24 hrs by RT-PCR analysis; format: functional, cell-based
[11] = tested on: HT-29; assay: Induction of CAMP mRNA expression in human HT-29 cells at 4 mM after 8 to 48 hrs by RT-PCR analysis; format: functional, cell-based
[12] = tested on: VA10; assay: Induction of CAMP mRNA expression in human VA10 cells at 4 mM after 24 hrs by RT-PCR analysis in presence of JNK inhibitor SP600125 treated 1 hr before compound challenge; format: functional, cell-based
[13] = tested on: VA10; assay: Induction of CAMP mRNA expression in human VA10 cells after 48 hrs by RT-PCR analysis; format: functional, cell-based
[14] = tested on: VA10; assay: Induction of CAMP mRNA expression in human VA10 cells at 4 mM after 24 hrs by RT-PCR analysis in presence of p38 kinase inhibitor SB203580 treated 1 hr before compound challenge; format: functional, cell-based
[15] = tested on: VA10; assay: Induction of DEFB2 mRNA expression in human VA10 cells at 4 mM after 24 hrs by RT-PCR analysis; format: functional, cell-based
[16] = Induction of CAMP mRNA expression in human VA10 cells at 4 mM after 24 hrs by RT-PCR analysis in presence of 1,25(OH)2D3 relative to control; format: functional
[17] = tested on: U-937; assay: Induction of CAMP mRNA expression in human U937 cells at 4 mM after 8 to 48 hrs by RT-PCR analysis; format: functional, cell-based
[18] = tested on: VA10; assay: Induction of CAMP mRNA expression in human VA10 cells at 4 mM after 24 hrs by RT-PCR analysis in presence of ERK1/2 inhibitor U0126 treated 1 hr before compound challenge; format: functional, cell-based

For `CC(Cc1ccccc1)C(=O)O` (stereo not given), the Activity [1] was “Active”.
In the case of `CCC(C)(C)C(=O)O`, the Activity [1] is reported as “inactive”.
In the case of `O=C([O-])CCCc1ccccc1.[Na+]` [SODIUM PHENYLBUTYRATE], the Activity [2] is reported as “inactive”, the Activity [3] is reported as “inactive” and the Activity [4] is reported as “Active”. The Activity [5] was “Active”, the Activity [6] was “inactive” and the Activity [7] was “Active”. The Activity [8] was “Active”, the Activity [9] was “tde” and the Activity [10] was “inactive”. The Activity [11] was “Active”, the Activity [12] was “inactive” and the Activity [13] was “Dose-dependent effect”. The Activity [14] was “inactive”, the Activity [1] was “Active” and the Activity [15] was “inactive”. The “fold change (FC)” value [16] was 100, the Activity [17] was “Active” and the Activity [18] was “inactive”.
